Assay results reported in the NIST ThermoML archive (doi:10.1016/j.fluid.2011.02.008).
Several values for one entry are separate records, joined by “and”; a condition that tells them apart may be missing. Equal entries are not always repeated. Numbers after ± are expanded uncertainties.

Conditions: Liquid, Closed cell (Static) method

SMILES: O=S=O [sulfur dioxide]
- vapor or sublimation pressure (343.15 K): 1479 ± 5 kPa and 1469 ± 24 kPa
- vapor or sublimation pressure (373.15 K): 2883 ± 9 kPa
- vapor or sublimation pressure (413.15 K): 5836 ± 18 kPa and 5978 ± 32 kPa
